Reference: ChEMBL document CHEMBL3639005, “SGLT-2 inhibitors, methods of making them, and uses thereof” (2013)

Columns and labels:
[1] = biological target: T1, Sodium/glucose cotransporter 1 (Homo sapiens, UniProt P13866); assay: (§1) In Vitro Assay: The inhibitory activity of the compounds of this invention against the SGLT-1 or SGLT-2 transporters.
T1 sequence (P13866 whole entry): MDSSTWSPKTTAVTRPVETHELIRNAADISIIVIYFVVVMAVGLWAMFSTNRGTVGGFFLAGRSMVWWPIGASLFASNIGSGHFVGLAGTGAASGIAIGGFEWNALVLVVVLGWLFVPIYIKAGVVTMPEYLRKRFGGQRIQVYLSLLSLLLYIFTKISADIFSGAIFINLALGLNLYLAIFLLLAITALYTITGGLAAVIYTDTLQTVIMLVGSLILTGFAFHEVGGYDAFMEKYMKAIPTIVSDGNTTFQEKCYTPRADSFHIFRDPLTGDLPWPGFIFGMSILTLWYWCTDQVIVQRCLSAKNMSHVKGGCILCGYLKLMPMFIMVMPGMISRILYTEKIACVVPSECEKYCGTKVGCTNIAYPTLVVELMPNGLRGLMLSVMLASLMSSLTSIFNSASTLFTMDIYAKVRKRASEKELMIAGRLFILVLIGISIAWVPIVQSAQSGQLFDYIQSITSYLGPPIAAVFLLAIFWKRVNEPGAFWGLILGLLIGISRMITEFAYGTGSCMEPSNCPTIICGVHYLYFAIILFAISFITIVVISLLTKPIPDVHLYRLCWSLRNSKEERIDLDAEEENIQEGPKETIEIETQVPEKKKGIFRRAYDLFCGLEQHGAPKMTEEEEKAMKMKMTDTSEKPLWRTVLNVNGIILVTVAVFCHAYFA

[2] = biological target: T2, Sodium/glucose cotransporter 2 (Homo sapiens, UniProt P31639); assay: as §1
T2 sequence (P31639 whole entry): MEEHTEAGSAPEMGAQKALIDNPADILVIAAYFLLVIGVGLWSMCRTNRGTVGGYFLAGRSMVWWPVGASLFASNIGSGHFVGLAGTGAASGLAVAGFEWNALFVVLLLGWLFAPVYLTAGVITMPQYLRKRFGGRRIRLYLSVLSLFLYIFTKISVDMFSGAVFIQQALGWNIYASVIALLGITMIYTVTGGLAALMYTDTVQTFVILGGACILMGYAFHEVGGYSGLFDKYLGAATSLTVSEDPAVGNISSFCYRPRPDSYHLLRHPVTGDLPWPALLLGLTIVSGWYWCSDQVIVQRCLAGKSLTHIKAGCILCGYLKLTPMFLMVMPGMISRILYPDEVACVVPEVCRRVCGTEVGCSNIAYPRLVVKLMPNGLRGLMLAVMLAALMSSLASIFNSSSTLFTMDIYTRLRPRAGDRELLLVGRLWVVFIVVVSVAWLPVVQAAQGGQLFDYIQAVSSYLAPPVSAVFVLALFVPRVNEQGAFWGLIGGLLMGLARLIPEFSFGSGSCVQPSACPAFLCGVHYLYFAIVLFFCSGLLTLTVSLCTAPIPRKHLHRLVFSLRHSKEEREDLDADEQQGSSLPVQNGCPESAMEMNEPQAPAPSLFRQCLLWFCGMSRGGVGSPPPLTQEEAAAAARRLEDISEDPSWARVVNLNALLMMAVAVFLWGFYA

IC50 [1]	IC50 [2]	SMILES
> 90000 nM	91 nM	O=c1n(Cc2cc([C@@H]3O[C@H](CO)[C@@H](O)[C@H](O)[C@H]3O)ccc2Cl)nc2cc(Cl)ccn12
> 90000 nM	223 nM	N#CC1(c2ccc3nn(Cc4cc([C@@H]5O[C@H](CO)[C@@H](O)[C@H](O)[C@H]5O)ccc4Cl)c(=O)n3c2)CC1
